This note sets out measurements from patent US20250352615A1, “COMPOSITIONS AND METHODS FOR THE MODULATION OF PIEZO1 AND TRPV4” (Duke University, priority 2021, published 2025).

For this assay, the system named is mouse PSCs. The assay can be described thus: Mouse PSC activation and fibrogenic response. The format is cell-based. The conditions noted are these: Yoda1 25 μM. The protocol:
Mouse and human PSCs were isolated using collagenase digestion. Modified Krebs Henseleit Buffer (KHB) solution (100 mL) was prepared as previously described by Romac et al., Nat. Commun. 9(1):1715 (2018). Pancreatic tissue was digested with 2 mg of collagenase NB 8 (SERVA, catalog 17456) dissolved in 10 mL of modified KHB solution containing 1 mg soybean trypsin inhibitor (SBTI 1-S; Millipore Sigma, catalog T9003) and 20 mg BSA (Thermo Fisher Scientific; BP1600-100). Digestion solution (5 mL) was used to inflate the pancreas. Pancreas with 5 mL of digestion solution was incubated in a shaking water bath for 10 minutes at 37° C. The solution was then discarded. The pancreas tissue was cut into small pieces and digested with fresh 5 mL digestion buffer. Tissue was incubated in a shaking water bath for 40 minutes at 37° C. The cells were then separated from tissue by pipetting up-down with a 10 mL pipette and passed sequentially through a 70 μm and a 40 μm cell strainer. The filtrate was centrifuged at 150×g for 3 minutes at room temperature. The cells were washed with 10 mL Leibovitz's media (Thermo Fisher Scientific, catalog 11415-064), passed through a 20 μm filter, and centrifuged at 80×g for 3 minutes at room temperature. The supernate was removed, and isolated stellate cells were plated on a thin-layered Matrigel-coated glass bottom culture plate (MatTek, P35G-0-14-C). Before plating the cells, Matrigel solution (Corning, catalog 354234) at a ratio of 1.5:100 DMEM/F12 (Thermo Fisher Scientific, catalog 11330-032) was poured onto the culture plate and incubated for 2 hr at 37° C. to form a thin layer of Matrigel coating. Matrigel mixture was removed, and the plate was washed with PBS before cells were plated. Cell culture media, DMEM/F12 with 5% FBS was used for mouse stellate cells. Fresh, human pancreatic tissue was digested with collagenase as described above with modifications. […] The cell viability following Yoda1 treatment was analyzed using the Live/Dead cell imaging kit (Thermo Fisher Scientific, catalog R37601). […]

In the case of `Clc1cccc(Cl)c1CSc1nnc(-c2cnccn2)s1` [Yoda1], the “activation of PSCs from TRPV4-KO mice (cell shape, perinuclear fat droplets, ECM protein expression)” value was “did not activate PSCs from TRPV4-KO mice”. In addition, the “effects of Yoda1 on fibrosis in Piezo1-deleted PSCs” value (Piezo1GFAP-KO PSCs) is on record as “prevented in Piezo1-deleted PSCs”. Moreover, the PSC activation phenotype entry (WT mouse PSCs) was “converted mouse PSCs to an activated phenotype with reduced perinuclear fat droplets, changes in cell shape, and increased fibronectin and collagen type I”.
